From patent publication US11753373B2, “Protease inhibitors as antivirals” (priority 2021, dated 2023)

Assays:
in vivo [1] = settings: female, beagle, dog, po, 40 mg/kg
Protocol: Pharmacokinetics of test compounds was evaluated following an oral administration of a single dose (at 40 mg/kg) to female Beagle dogs.
Procedure: Test compounds were orally administered to beagle dogs (single dose). The target dose level for oral administration was 40 mg/kg. Blood samples were collected at pre-dose, and at 0.083, 0.25, 0.50, 1, 2, 4, 6, 8, and 24 hours post-dose. Concentrations of test compound were determined by an LC-MS/MS. Non-compartmental Pharmacokinetic parameters of test compounds were analyzed using Phoenix WinNonlin 8.3.
Animal Dosing: All animals were fasted ˜17-19 h prior to dosing and fed approximately 4 hours after dosing. […] The dogs were dosed at 10.0 ml/kg. The formulation volume of the test compound administered to each animal was calculated based on the body weight measured on the day of dosing.
Sample Collection and Analysis: Approximately 1 mL of blood was collected by jugular vein puncture into tubes containing EDTA-K2 anticoagulant. Plasma samples were harvested by centrifugation (2000 g for 10 minutes at 4° C. within 2 hours after collection) and stored at −80° C. until analysis. The analytical method for test compound involved protein precipitation by adding acetonitrile containing 1% FA and internal standard (A-1-a synthesized in house or Tolbutamide purchased from Sigma), and final analysis by LC-MS/MS. A standard curve was prepared using dog plasma for the test article. The calibration curve was linear over a concentration range of 1.0 to 1000 ng/mL.
(§1) Pharmacokinetic and Statistic Analysis: The reported plasma concentrations of test compounds were used to determine pharmacokinetic parameters, using a non-compartmental model for data analysis (Phoenix WinNonlin 8.3). The common pharmacokinetic parameters were calculated, whenever possible, from the plasma concentration-versus-time data. Nominal doses and sampling times were used, except where deviations were noted. […] BQL after Tmax would not participate in calculation of PK parameters.

[2] = assay type: in vitro ADME, Human; settings: extraction ratio; for Liver Microsomal Stability (ER) Human: compound at 1 uM, human liver microsomes 0.5 mg/mL
[3] = assay type: in vitro ADME; settings: extraction ratio, compound at 1 uM; for Liver Microsomal Stability (ER) SD rat: SD rat liver microsomes 0.5 mg/mL; for Liver Microsomal Stability (ER) Beagle dog: beagle dog liver microsomes 0.5 mg/mL; for Liver Microsomal Stability (ER) Mouse: mouse liver microsomes 0.5 mg/mL
SARS-CoV-2 = test: Anti-viral in vitro PRNT assay in Vero E6 cells; assay type: cell-based; settings: Severe acute respiratory syndrome coronavirus 2, Vero C1008, 72 h; Vero E6 cells, 1000 pfu, 3 days, plaque reduction; read-out: anti-SARS-CoV2 (PRNT) in Vero E6 EC50
in vivo [4] = settings: female, Balb/c, mouse, po, 40 mg/kg
Protocol: Pharmacokinetics of test compounds was evaluated following an oral administration of a single dose (at 40 mg/kg) to female Balb/c mice.
Procedure: Test compounds were administered to Balb/c mice (n=3 per sex per time point) by a single oral gavage. The target dose level for oral administration was 40 mg/kg. Blood samples were collected at pre-dose, and at 0.083, 0.25, 0.50, 1, 2, 4, 6, 8, and 12 hours post-dose. Concentrations of test compound were determined by an LC-MS/MS. Non-compartmental Pharmacokinetic parameters of test compounds were analyzed using Phoenix WinNonlin 8.3.
Animal Dosing: All animals were fasted overnight through approximately 4 hours post-dose. Tap water was provided to mice ad Libitum. The mice were dosed orally at 10.0 ml/kg. The formulation volume of the test compound administered to each animal was calculated based on the body weight measured on the day of dosing.
Sample Collection and Analysis: Approximately 0.20 mL of blood was collected via orbital sinus vein puncture into EDTA-K2 tubes. Plasma samples were harvested by centrifugation and stored at −80° C. until analysis. The analytical method for test compound involved protein precipitation by adding acetonitrile containing 1% FA and internal standard (A-1-a synthesized in house or Tolbutamide purchased from Sigma), and final analysis by LC-MS/MS. A standard curve was prepared using mouse plasma for the test compound. The calibration curve was linear over a concentration range of 1.0 to 1000 ng/mL.
as §1

SARS-CoV-2 Omicron [5] = test: Virus release assay using EpiAirway; assay type: cell-based; settings: Severe acute respiratory syndrome coronavirus 2
SARS-CoV-2 Omicron [6] = test: FRNT assay in A549-hACE2 cells; assay type: cell-based; settings: Severe acute respiratory syndrome coronavirus 2, 24 h
SARS-CoV-2 Omicron [7] = test: FRNT assay in Vero E6 cells; assay type: cell-based; settings: Severe acute respiratory syndrome coronavirus 2, Vero C1008, 24 h

Compound	AUC0-t (in vivo [1]) [ng·h/mL]	Cmax (in vivo [1]) [ng/mL]	Tmax (in vivo [1]) [h]	bioavailability (in vivo [1]) [%]	half-life (in vivo [1]) [h]	Liver Microsomal Stability (ER) Human [2]	Liver Microsomal Stability (ER) SD rat [3]	Liver Microsomal Stability (ER) Beagle dog [3]	Liver Microsomal Stability (ER) Mouse [3]	EC50 (SARS-CoV-2) [nM]	AUC0-t (in vivo [4]) [ng·h/mL]	Cmax (in vivo [4]) [ng/mL]	Tmax (in vivo [4]) [h]	half-life (in vivo [4]) [h]	further results
CC(C)C[C@H](NC(=O)c1cc2ccccc2[nH]1)C(=O)N[C@H](C=O)C[C@@H]1CCNC1=O [Compound A-1-c, N—((S)-4-methyl-1-oxo-1-(((S)-1-oxo-3-((S)-2-oxopyrrolidin-3-yl)propan-2-yl)amino)pentan-2-yl)-1H-indole-2-carboxamide]	36700	13800	0.833	31	4.84	0.12,	0.05	0.09	0.04	300	2170	734	3	1.07	Liver Microsomal Stability (ER) Human, at 0.1 uM ([2]; compound at 0.1 uM, human liver microsomes): 0.45(0.1 uM)*; Liver Microsomal Stability (ER) Monkey ([3]; monkey liver microsomes 0.5 mg/mL): 0.14; bioavailability (in vivo [4]): 8%
CC(C)C[C@H](NC(=O)c1cc2ccccc2[nH]1)C(=O)N[C@@H](C[C@@H]1CCNC1=O)C(O)S(=O)(=O)[O-].[Na+] (stereo partly drawn) [Compound A-1-d, sodium (2S)-2-((S)-2-(1H-indole-2-carboxamido)-4-methylpentanamido)-1-hydroxy-3-((S)-2-oxopyrrolidin-3-yl)propane-1-sulfonate]	95900	27800	2	> 83	2.73	0.08	0.12	0.04	0.10	1060	2620	1610	0.5	0.893	EC50 (SARS-CoV-2 Omicron [5]): 12 to 41 nM; EC90 (SARS-CoV-2 Omicron [5]): 12 to 41 nM; EC50 (SARS-CoV-2 Omicron [6]): 130 nM; EC90 (SARS-CoV-2 Omicron [6]): 280 nM; EC50 (SARS-CoV-2 Omicron [7]): 360 nM; EC90 (SARS-CoV-2 Omicron [7]): 410 nM
